Laboratory results from patent publication US9051300B2, “Herbicides” (Syngenta Limited, priority 2009, dated 2015).

What was measured:
Assay type in all cases: in vivo
[1] = test system: Winter Wheat variety 'Hereward'; test: Crop damage to winter wheat, post-emergence spray; details: 250 g/ha, no safener, evaluated after 13 days, 100=total damage to plant, 0=no damage
Method: Seeds of the Winter Wheat variety ‘Hereward’ were sown in standard soil in pots. After 8 days cultivation under controlled conditions in a glasshouse (at 24/16° C., day/night; 14 hours light; 65% humidity), the plants were sprayed post-emergence with an aqueous spray solution derived from the formulation of the technical active ingredient in acetone/water (50:50) solution containing 0.5% Tween 20 (polyoxyethylene sorbitan monolaurate, CAS RN 9005-64-5). The test plants were then grown in a glasshouse under controlled conditions in a glasshouse (at 24/16° C., day/night; 14 hours light; 65% humidity) and watered twice daily. After 13 days for pre and post-emergence, the test was evaluated (100=total damage to plant; 0=no damage to plant).

[2] = test system: Echinochloa crus-galli (ECHCG); test: Pre-emergence herbicidal activity, glasshouse pot test; details: rate not printed (columns shifted), evaluated after 13 days, 100=total damage to plant, 0=no damage
Method: (§1) Seeds of a variety of test species are sown in standard soil in pots. After cultivation for one day (pre-emergence) or after 8 days cultivation (post-emergence) under controlled conditions in a glasshouse (at 24/16° C., day/night; 14 hours light; 65% humidity), the plants are sprayed with an aqueous spray solution derived from the formulation of the technical active ingredient in acetone/water (50:50) solution containing 0.5% Tween 20 (polyoxyethylene sorbitan monolaurate, CAS RN 9005-64-5). The test plants are then grown in a glasshouse under controlled conditions in a glasshouse (at 24/16° C., day/night; 14 hours light; 65% humidity) and watered twice daily. After 13 days for pre and post-emergence, the test is evaluated (100=total damage to plant; 0=no damage to plant). Lolium perenne (LOLPE), Alopecurus myosuroides (ALOMY), Echinochloa crus-galli (ECHCG), Avena fatua (AVEFA) Pre-Emergence Activity

[3] = test system: Alopecurus myosuroides (ALOMY); test: as above; details: rate not printed (columns shifted), evaluated after 13 days, 100=total damage to plant, 0=no damage
Method: as §1

[4] = test system: Avena fatua (AVEFA); test: as above; details: rate not printed (columns shifted), evaluated after 13 days, 100=total damage to plant, 0=no damage
Method: as §1

[5] = test system: Lolium perenne (LOLPE); test: as above; details: rate not printed (columns shifted), evaluated after 13 days, 100=total damage to plant, 0=no damage
Method: as §1

[6] = test system: Winter Wheat variety 'Hereward'; test: Crop damage to winter wheat seed treated with safener cloquintocet mexyl, post-emergence spray; details: 250 g/ha, seed treated with cloquintocet mexyl 0.5 g/kg seed, evaluated after 13 days, 100=total damage, 0=no damage
Method: Seeds of the Winter Wheat variety ‘Hereward’ were seed treated with a wettable powder formulation of the cereal herbicide safener, cloquintocet mexyl, at a rate of 0.5 grams per kilogram of dry seed prior to the initiation of glasshouse testing. One seed was sown per 1.5 inch plastic pot into a sandy loam soil at a depth of 1 cm, 8 days prior to application of the test compounds and was watered and grown under controlled conditions in a glasshouse (at 24/16° C., day/night; 14 hours light; 65% humidity). The plants were sprayed post-emergence with an aqueous spray solution derived from the formulation of the technical active ingredient in acetone/water (50:50) solution containing 0.5% Tween 20 (polyoxyethylene sorbitan monolaurate, CAS RN 9005-64-5). The test plants were then grown in a glasshouse under controlled conditions in a glasshouse (at 24/16° C., day/night; 14 hours light; 65% humidity) and watered twice daily. After 13 days for pre and post-emergence, the test was evaluated (100=total damage to plant; 0=no damage to plant).

[7] = test system: Echinochloa crus-galli (ECHCG); test: Post-emergence herbicidal activity, glasshouse pot test; details: 312 h, evaluated after 13 days, 100=total damage to plant, 0=no damage
Method: as §1, with “Post-Emergence” for “Pre-Emergence”

[8] = test system: Alopecurus myosuroides (ALOMY); test: as above; details: 312 h, evaluated after 13 days, 100=total damage to plant, 0=no damage
Method: as §1, with “Post-Emergence” for “Pre-Emergence”

[9] = test system: Avena fatua (AVEFA); test: as above; details: 312 h, evaluated after 13 days, 100=total damage to plant, 0=no damage
Method: as §1, with “Post-Emergence” for “Pre-Emergence”

[10] = test system: Lolium perenne (LOLPE); test: as above; details: 312 h, evaluated after 13 days, 100=total damage to plant, 0=no damage
Method: as §1, with “Post-Emergence” for “Pre-Emergence”

Structure (SMILES)	Winter Wheat (Hereward) (damage to plant) [1]	Pre-Emergence Activity ECHCG (damage to plant) [2]	Pre-Emergence Activity ALOMY (damage to plant) [3]	Pre-Emergence Activity AVEFA (damage to plant) [4]	Pre-Emergence Activity LOLPE (damage to plant) [5]	Winter Wheat (Hereward) + cloquintocet mexyl (damage to plant) [6]	pest or weed control at 250 g/ha [7]	pest or weed control at 250 g/ha [8]	pest or weed control at 250 g/ha [9]	pest or weed control at 250 g/ha [10]
Cc1cc(-c2ccc(Cl)cc2)nn1C1C(=O)C/C(=C\C2CCOCC2)C1=O (stereo not drawn) [Compound A23]	80	100	90	90	100	60	100%	90%	100%	100%
Cc1cc(-c2ccc(Cl)cc2)nn1C1C(=O)CC(CC2CCOCC2)C1=O (stereo not drawn) [Compound A25]	80	100	70	70	90	40	100%	100%	100%	100%
Cc1cc(-c2ccc(Cl)cc2)nn1C1C(=O)CC(Cc2ccc(F)cn2)C1=O (stereo not drawn) [Compound A20]	70	100	40	20	70	70	100%	80%	90%	90%
Cc1cnc(-c2ccc(Cl)cc2)nc1C1C(=O)CC(CC2CCOCC2)C1=O (stereo not drawn) [Compound A8]	20	100	50	60	80	0	90%	50%	50%	50%
Cc1sc(-c2ccc(Cl)cc2)nc1C1C(=O)CC(Cc2ccccn2)C1=O (stereo not drawn) [Compound A16]	60	100	90	80	90	60	100%	90%	100%	100%
Cc1cc(-c2ccc(Cl)cc2)nn1C1C(=O)C/C(=C/c2ccc(F)cn2)C1=O (stereo not drawn) [Compound A22]	60	70	40	20	60	10	90%	70%	60%	50%
